From patent US9642922B2, “Caspase-triggered nano-aggregation probes and methods of use” (The Board of Trustees of the Leland Stanford Junior …, priority 2013, dated 2017)
Numbered stars: 1 amine (or outer) side, 2 acyl side, 3 side chain; on linkers, the order of the positions; unused ones are H or OH. Square brackets hold non-standard residues; d marks the D form. Peptide text beside a SMILES is read from it. * marks the point of attachment. DOTA = O=C(O)CN1CCN(CC(=O)O)CCN(CC(=O)*)CCN(CC(=O)O)CC1; X1 = O=C(C1CSC(c2nc3ccc(N[*:1])cc3s2)=N1)[*:2]; X3 = c1cnc2ccc(OCCCN*)cc2c1; SEt = CCS*

Key:
[1] = Water proton r1 relaxivity measurement; type: physicochemical; conditions: 1 T
Description: Water proton r1 relaxivities of probe 15 and 1-ctrl (19) before and after caspase-3 incubation were then measured at 1, 1.5 and 3 T. For comparison, the isolated cyclized products 2-I and 2-II were also measured.
A series of solutions containing contrast agents with five different concentrations (0.05-0.5 mM) in Caspase buffer (pH 7.4) were treated with or without Casp-3 (50 nM) at 37° C. overnight. The solutions were placed in PCR tubes, bundled together, and MR-imaged at 1 T (Bruker Icon, Bruker BioSpin Corp.), […], 1.5 and 3 T (Signa HDx, GE Healthcare) at room temperature.
The scanning procedure began with a localizer and then consisted of a series of inversion-prepared fast spin echo scans, identical in all aspects (TR 8000 ms (6000 ms for Bruker Icon), TE minimum, field of view 6 cm, slice thickness 2 mm, matrix 128×128, NEX 1) except for the inversion time (TI) that was varied as: 4000, 2400, 1200, 800, 600, 400, 300, 200, 100, and 50 ms. For quantitative data analysis, the acquired MR images were transferred as DICOM images to an offline workstation, and signal intensities were extracted from each of the 5 samples at each of the 10 TI times by manual region of interest (ROI) placement and voxel averaging within the ROI.
Signal intensity versus TI relationships were fit to the following exponential T1 recovery model by non-linear least squares regression: SI (TI)=S0[1−2*exp(−TI/T1)+exp(−TR/T1)]. Relaxation rates (R1) were determined as 1/T1. Longitudinal relaxivities (r1, units of mM^−1s^−1) were calculated as the slope of R1 vs [Gd] after the determination of true Gd concentration of each sample by the ICP-MS measurement.

HeLa cells = assay: ICP-MS cellular uptake of Gd in HeLa cells; type: cell-based, human; conditions: 250 μM, 24 h
Description: The cellular uptake of Gd was studied by inductively-coupled plasma mass spectrometry (ICP-MS) analysis of the amount of Gd in viable and apoptotic cells after incubation with probe 15 (50-250 μM) for 24 h. […] This uptake enhancement was inhibitable by Z-VAD-fmk (50 μM), confirming the caspase-3-dependent accumulation of probe 15 in apoptotic cells.

HeLa cell pellets = assay: MRI T1 of HeLa cell pellets at 1 T; type: cell-based, human; conditions: 250 μM, 24 h
Description: Thus, higher caspase-3 activity in apoptotic cells can trap probe 15 inside cells, resulting in higher MRI contrast for cell apoptosis imaging.

subcutaneous HeLa tumors = assay: In vivo MR imaging of doxorubicin-treated HeLa tumors; parameters: species or system mouse; conditions: up to 4 h
Description: Evaluation of activatable contrast agent probe 15 for MR imaging of caspase-3 activity in vivo was performed in nude mice bearing subcutaneous HeLa tumors. Tumors were implanted and grown for 10-15 days before receiving intratumoral injections of two doses of 0.2 mg doxorubicin separated by 2 days. Probe 15 or 1-ctrl (19) (0.1 mmol kg^−1) was injected intravenously the day before treatment (baseline) and four days post-treatment (treated). Spin-echo T1-weighted multislice MR images at 1 T were recorded before (pre-contrast) and every 4 min after contrast agent administration (post-contrast), and scanning was carried out for 4 h post-contrast for each mouse. Much brighter MR signals (T1 contrast) were observed 40 and 120 min after injection with probe 15 in treated tumors as compared to that in baseline tumors (FIG. 29A), or in treated tumors with 1-ctrl (19) (FIG. 29B).
In vivo MR imaging was performed on an Aspect M2 1T permanent magnet (Aspect Imaging, Shoham, Israel) using a 40 mm Transmit/Receive mouse body coil. During imaging, the animals were anaesthetized with isofluorane and their respiration and body temperature were constantly monitored. Intravenous contrast injection at 0.1 mmol/kg concentration was administered in a 100 μL volume for every imaging session. Multi-slice (312 μm in-plane, 12 slices with 1 mm thickness) T1-weighted spin echo images (TE/TR=8.9/250 ms, matrix 128×128, FOV=40 mm, NEX=6) were acquired, one before contrast injection and then every 4 min up to 4 h after contrast injection. A 1 mM Dotarem reference tube was inserted in the field of view to enable inter-session variability correction during post-processing. Each animal underwent two imaging session; one before DOX treatment (baseline), and one after DOX treatment (treated).
Acquired MR data were transferred as DICOM images to an offline workstation and ImageJ (NIH) was used for post processing and quantitative image analysis. This consisted of manual segmentation of tumor ROI for each slice, slice-wise normalization of mean tumor signal intensity with the 1 mM Dotarem reference standard to account for inter-session variability, followed by combining these normalized, slice-wise values to generate mean volumetric tumor signal intensities (SI) for each time point.
Signal enhancement was calculated at each time point as the difference between the tumor SI at that time point and the tumor SI in the pre-contrast (t=0) dataset. SE(t)=SI(t)−SI(t=0); for each mouse, for every session
This metric was used to quantify the difference in SE between the baseline (before DOX treatment) session and the treated session for each mouse, as a means to tease out the difference between the two contrast agents, probe 1 and 1-cntl (19) over the time course of the imaging session. % D(t)=[SE(t,treated)−SE(t,baseline)]/SE(t,baseline); for each mouse.

caspase-3 [2] = biological target: T1, caspase-3 (Homo sapiens, UniProt P42574); assay: HPLC assay of caspase-3-triggered cyclization of MRI probe 15; type: biochemical; parameters: purchased Sigma; host or cells: E. coli
T1 sequence (P42574 29-175 limits assumed): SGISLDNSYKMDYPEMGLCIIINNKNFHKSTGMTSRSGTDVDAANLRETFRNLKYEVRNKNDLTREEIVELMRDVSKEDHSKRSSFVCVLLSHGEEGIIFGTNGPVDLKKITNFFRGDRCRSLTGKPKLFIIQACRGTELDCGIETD
T1 sequence (P42574 176-277 limits assumed): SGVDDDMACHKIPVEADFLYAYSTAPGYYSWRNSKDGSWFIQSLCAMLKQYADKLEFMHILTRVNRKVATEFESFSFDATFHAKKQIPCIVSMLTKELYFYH
Description: The progression of caspase-3-triggered intramolecular cyclization of probe 15 in solution was investigated by incubation (200 μM) with recombinant human caspase-3 (50 nM) using high-performance liquid chromatography (HPLC). […] More than 90% of probe 15 and its disulfide bond reduced intermediates could be converted after 5 h (FIG. 27B).

[3] = Stability of PET tracers in mouse serum; type: in vitro ADME; conditions: 1 h incubation, 37° C.
Description: To the mouse serum (500 μL) 100 μL (approximately 100 μCi/3.7 MBq) of radioactive sample was added and the mixture was incubated at 37° C. At each time point, 100 μL of sample was taken and after mixing with 100 μL of acetonitrile was centrifuged at 9,400×g for 5 min. The resulting supernatants were collected, and an aliquot of each supernatant (100 μL) was diluted with 100 μL of water and analyzed via the same HPLC method used for quality control (fitted with a highly sensitive positron detector for radioactivity). The percent ratio of intact compound to the total radioactivity on the HPLC chromatogram was calculated as %=[(peak area for intact compound)/(total peak area)]×100.

caspase-3 [4] = biological target: T1, caspase-3; assay: Incubation of PET tracer with recombinant caspase-3, radio-HPLC; type: biochemical; conditions: same condition
Description: To evaluate the activatable PET tracer 1 for caspase-3 detection, it was first incubated with recombinant caspase-3 in buffer.

HeLa tumor xenograft = assay: PET imaging of HeLa tumor xenograft-bearing nude mice; type: in vivo, mouse
Description: One group of animals was scanned at baseline (before treatment) and 4 days post treatment with 0.2 mg doxorubicin injected into the tumor. On the day of scanning, the animals were moved from their housing area to the PET scanner around 1 h prior to the experiment. They were constrained shortly in a tail veiner and injected intravenously, with 440±97 μCi (16±3 MBq) [^18F]C-SNAT formulation. They were anesthetized with 2% isoflurane shortly before placement in an R4 microPET scanner (Siemens Medical Solutions, USA). The anesthesia were continued with 2% isoflurane doing 5 min of acquisition. Scans using the control tracer 1-D (173±73 μCi/9±4 Mbq in 200 μL formulation) were carried out in a similar manner using two groups (one baseline and one treated) instead of the same animals at baseline and after treatment. The images were reconstructed using a standard 2D reconstruction without attenuation correction.
The reconstructed images were analyzed by making two volumes of interest (VOI), one on the tumor and one located on the left shoulder corresponding to muscle/bone mixture. The percent of injected dose per gram tissue (% ID/g) was calculated in each VOI and the ratio between tumor and muscle uptake was calculated based on this uptake (uptake in tumor/uptake in muscle region). The effect of treatment was calculated as the difference in uptake of [^18F]C-SNAT at baseline and after treatment.
Evaluation of activatable PET tracer 1 and control tracer 1-D for PET imaging of caspase-3 activity in vivo was performed in HeLa tumor xenograft-bearing nude mice. Tumors were implanted and grown for a minimum of 10 d before receiving intratumoral injection of 0.2 mg DOX (20 μL). 1 or 1-D (5-15 MBq/135-405 μCi) was injected through the tail vein for PET imaging 4 d post treatment. Static PET scans (5 min) were performed 65, 125 and 182 mins post tracer injection.

r1 relaxivity without caspase-3 activation [1] [mM⁻¹ s⁻¹]	reduction of relaxivity after incubation with caspase-3 [1] [%]	intact tracer in mouse serum [3] [%]	cleavage by caspase-3 (caspase-3 [4])	SMILES	uptake of Gd in STS-treated cells compared with probe 15 (HeLa cells)	difference in T1 between STS-treated and non-treated cells (HeLa cell pellets)	difference in SI enhancement between treated and baseline tumors (subcutaneous HeLa tumors)	products observed after incubation with caspase-3 (caspase-3 [2])	uptake difference between before and after treatment (HeLa tumor xenograft; control tracer)	change of T/M ratio (HeLa tumor xenograft; mouse, in vivo)	uptake in treated and non-treated tumors compared with 1 (HeLa tumor xenograft; mouse, in vivo)
4.8				CNC[C@H](O)[C@@H](O)[C@H](O)[C@H](O)CO.O=C([O-])CN1CCN(CC(=O)[O-])CCN(CC(=O)O)CCN(CC(=O)[O-])CC1.[Gd+3] [Dotarem, reference compound]	much lower uptake of Gd	no significant reduction in T1					
	14			CCSSCC(NC(=O)C(CC(=O)O)NC(=O)C(NC(=O)C(CCC(=O)O)NC(=O)C(CC(=O)O)NC(C)=O)C(C)C)C(=O)NC(CCCCNC(=O)CN1CCN(CC(=O)[O-])CCN(CC(=O)[O-])CCN(CC(=O)[O-])CC1)C(=O)Nc1ccc2nc(C3=NC(C(=O)NCCCOc4ccc5ncccc5c4)CS3)sc2c1.[Gd+3] (stereo not drawn) [1-ctrl (19)] (Ac-DEVDC(SEt)K(DOTA)[X1]-X3; configuration not given here)	much lower uptake of Gd		no significant difference in SI enhancement	only the DEVD peptide cleaved and disulfide reduced product was observed			
		90	could not be cleaved by caspase-3	CSCC(NC(=O)C(CC(=O)O)NC(=O)C(NC(=O)C(CCC(=O)O)NC(=O)C(CC(=O)O)NC(C)=O)C(C)C)C(=O)NC(Cc1cn(CCOCCOCCOCC[18F])nn1)C(=O)Nc1ccc2nc(C3=NC(C(=O)NCCCOc4ccc5ncccc5c4)CS3)sc2c1 (stereo not drawn) [1-D]					less than 0.2 % ID/g	did not show significant increases	much lower than that of 1
